These results are taken from ChEMBL document CHEMBL5705903, “A DNA Hypomethylation Signature Predicts Antitumor Activity of LSD1 Inhibitors in SCLC” (Cancer Cell, 2015).

pEC50, pIC50: −log10 of the molar value. The source made the active and inactive calls. The rule behind the calls is not given here.

For one data set, the target named is Cannabinoid receptor 2 (Homo sapiens, UniProt P34972). Briefly: Agonist activity at Cannabinoid CB2 receptor (unknown origin). The data set is classed as functional.
A further data set has as its target D(1A) dopamine receptor (Homo sapiens, UniProt P21728). The experiment in a line: Antagonist activity at Dopamine D1 receptor (unknown origin). Format: functional.
Data set [1] deals with T1, Muscarinic acetylcholine receptor M1 (Homo sapiens, UniProt P11229).
T1 sequence (P11229 whole entry): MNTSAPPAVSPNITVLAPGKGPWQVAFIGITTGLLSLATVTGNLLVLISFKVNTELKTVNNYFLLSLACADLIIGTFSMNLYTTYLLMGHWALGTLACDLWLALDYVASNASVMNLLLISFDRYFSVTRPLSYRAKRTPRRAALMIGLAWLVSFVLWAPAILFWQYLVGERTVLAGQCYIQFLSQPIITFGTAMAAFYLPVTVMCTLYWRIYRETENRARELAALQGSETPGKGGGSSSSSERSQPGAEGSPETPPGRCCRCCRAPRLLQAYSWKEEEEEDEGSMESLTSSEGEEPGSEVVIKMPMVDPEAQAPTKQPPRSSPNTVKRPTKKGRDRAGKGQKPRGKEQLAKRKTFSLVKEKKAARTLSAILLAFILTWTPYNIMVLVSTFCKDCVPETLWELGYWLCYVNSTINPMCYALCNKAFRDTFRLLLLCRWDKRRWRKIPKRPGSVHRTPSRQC
The experiment in a line: Antagonist activity at Muscarinic M1 receptor (unknown origin). The data set is classed as functional.

Data set [2] addresses Kappa-type opioid receptor (Homo sapiens, UniProt P41145). Briefly: Agonist activity at KOR (unknown origin). Format: functional.
In data set [3] the target is 5-hydroxytryptamine receptor 2A (Homo sapiens, UniProt P28223). The experiment in a line: Agonist activity at 5-HT2A receptor (unknown origin). Format: functional.
Data set [4] has as its target 3',5'-cyclic-AMP phosphodiesterase 4B (Homo sapiens, UniProt Q07343). The experiment in a line: Inhibition of PDE4B (unknown origin).
Data set [5] deals with Voltage-gated potassium channel, IKs; KCNQ1(Kv7.1)/KCNE1(MinK) (Homo sapiens, UniProt P15382+P51787). The experiment in a line: Inhibition of KCNQ1/minK (unknown origin). The data set is classed as protein-complex assay.
Data set [6] is described as follows: Inhibition of Cav1.2 (unknown origin). On the set-up: species or system Homo sapiens.
The target in data set [7] is Sodium channel protein type 5 subunit alpha (Homo sapiens, UniProt Q14524). Briefly: Inhibition of Nav1.5 (unknown origin).
Data set [8] concerns the target Phosphatidylinositol 4,5-bisphosphate 3-kinase catalytic subunit gamma isoform (Homo sapiens, UniProt P48736). The experiment in a line: Inhibition of PI3Kgamma (unknown origin).
The nature of data set [9]: Cmax in mouse at 5.5 mg/kg, ip by HPLC/MS/MS analysis. Format: ADME, organism-based. The settings on record: in vivo.
Data set [10] in a line: Cmax in mouse blood at 5 mg/kg, po by HPLC/MS/MS analysis. Format: ADME, organism-based.
The nature of data set [11]: AUC (0 to last) in mouse tumor at 5 mg/kg, po by HPLC/MS/MS analysis. Format: ADME, organism-based, Neoplasm.
Data set [12] in a line: Toxicity in mouse xenografted with human NCI-H526 cells assessed as drug tolerance at 1.5 mg/kg, po administered daily measured for 30 days. Format: organism-based. Particulars: in vivo, 720 h, time 30 day. On the technique in general: In xenograft studies the graft and the host belong to different species.
Data set [13] is described as follows: Effect on cleaved PARP level in human NCI-H1417 cells assessed as relative expression at 1000 nM measured after 14 days by Western blot analysis (reference value: 0.38). The data set is classed as functional. Particulars: time 14 day. (In western blotting, separated proteins are transferred to a membrane and probed.)
A short description of data set [14]: Effect on cleaved PARP level in human NCI-H1417 cells assessed as fold change at 10 nM measured after 7 days by Western blot analysis (reference value: 1.00). Format: functional. Particulars: time 7 day.
Data set [15] is described as follows: Effect on cleaved PARP level in human NCI-H1417 cells assessed as fold change at 100 nM measured after 10 days by Western blot analysis (reference value: 1.00). The data set is classed as functional. The settings on record: time 10 day.
Data set [16] in a line: Effect on cleaved PARP level in human NCI-H526 cells assessed as relative expression at 1000 nM measured after 10 days by Western blot analysis (reference value: 0.81). The data set is classed as functional. The settings on record: time 10 day.
The nature of data set [17]: Effect on cleaved PARP level in human NCI-H526 cells assessed as fold change at 1000 nM measured after 10 days by Western blot analysis (reference value: 1.00). The data set is classed as functional. The settings on record: time 10 day.
Data set [18] is described as follows: Effect on cleaved PARP level in human NCI-H526 cells assessed as fold change at 10 nM measured after 14 days by Western blot analysis (reference value: 1.00). Format: functional. Particulars: time 14 day.
Data set [19] in a line: Effect on cleaved PARP level in human NCI-H524 cells assessed as fold change at 100 nM measured after 7 days by Western blot analysis (reference value: 1.00). Particulars: time 7 day. The data set is classed as functional.
A short description of data set [20]: Effect on cleaved PARP level in human COLO-668 cells assessed as fold change at 1000 nM measured after 14 days by Western blot analysis (reference value: 1.00). The settings on record: time 14 day. Format: functional.
The nature of data set [21]: Effect on cleaved PARP level in human NCI-H69 cells assessed as relative expression at 1000 nM measured after 7 days by Western blot analysis (reference value: 0.02). The data set is classed as functional. The settings on record: time 7 day.
Data set [22] is described as follows: Effect on cleaved PARP level in human NCI-H69 cells assessed as relative expression at 10 nM measured after 14 days by Western blot analysis (reference value: 0.03). Particulars: time 14 day. The data set is classed as functional.
A short description of data set [23]: Effect on cleaved PARP level in human NCI-H889 cells assessed as fold change at 1000 nM measured after 10 days by Western blot analysis (reference value: 1.00). Format: functional. The settings on record: time 10 day.
Data set [24] is described as follows: Effect on cleaved PARP level in human NCI-H146 cells assessed as relative expression at 100 nM measured after 7 days by Western blot analysis (reference value: […]). Format: functional. Particulars: time 7 day.
The nature of data set [25]: Effect on cleaved PARP level in human NCI-H146 cells assessed as fold change at 1000 nM measured after 10 days by Western blot analysis (reference value: 1.00). Format: functional. Particulars: time 10 day.
Data set [26] can be described thus: Effect on cleaved PARP level in human NCI-H146 cells assessed as fold change at 100 nM measured after 14 days by Western blot analysis (reference value: 1.00). The data set is classed as functional. Particulars: time 14 day.
The nature of data set [27]: Toxicity in rat assessed as declining clinical condition measured for 28 days. The settings on record: in vivo, 672 h, time 28 day.
Another data set deals with COLO-668. The experiment in a line: Effect on NSE gene expression in human COLO-668 cells at 1 uM measured after 4 to 7 days by qRT-PCR analysis. Format: functional, cell-based. Particulars: time 4-7 day.
The test system of another data set is SHP77. Briefly: Effect on NSE gene expression in human SHP77 cells at 1 uM measured after 4 to 7 days by qRT-PCR analysis. Particulars: time 4-7 day. Format: functional, cell-based. A general note: Quantitative PCR measures a nucleic acid by following its amplification.
The next data set relates to NCI-H526. Briefly: In vivo inhibition of LSD1 in human NCI-H526 cells xenografted in nude mouse assessed as change in ODZ2 gene expression measured after 24 hrs post single administration by qRT-PCR analysis. The data set is classed as functional, organism-based. The settings on record: dose 0.06-135 mg/kg.
The nature of data set [28]: Antitumor activity against human PDX L48 cells xenografted in mouse assessed as tumor growth inhibition at 1.5 mg/kg administered daily measured for 16 days relative to control. Format: functional. Particulars: PDX LX48, 384 h, time 16 day, read-out: TGI.
Data set [29] addresses Lysine-specific histone demethylase 1A (Homo sapiens, UniProt O60341). The settings on record: NCI-H526, dose 1-10000 nM, time 1-7 day.
Description: Inhibition of LSD1 in human NCI-H526 cells assessed as change in IGFBP2 gene expression at 1 to 10000 nM by qRT-PCR analysis

Chain of D(1A) dopamine receptor (P21728 whole entry): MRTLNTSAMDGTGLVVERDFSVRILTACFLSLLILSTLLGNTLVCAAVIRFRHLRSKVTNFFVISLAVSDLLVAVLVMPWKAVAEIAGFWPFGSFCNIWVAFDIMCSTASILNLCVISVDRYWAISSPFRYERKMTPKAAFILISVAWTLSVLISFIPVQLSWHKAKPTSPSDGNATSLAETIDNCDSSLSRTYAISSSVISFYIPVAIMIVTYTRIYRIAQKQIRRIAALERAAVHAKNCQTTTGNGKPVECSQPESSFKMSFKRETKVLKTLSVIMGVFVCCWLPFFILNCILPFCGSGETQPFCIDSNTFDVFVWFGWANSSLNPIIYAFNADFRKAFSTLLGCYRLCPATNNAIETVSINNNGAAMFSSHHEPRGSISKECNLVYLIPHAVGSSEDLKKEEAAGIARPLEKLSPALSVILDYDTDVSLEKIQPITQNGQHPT
Chain of Cannabinoid receptor 2 (P34972 whole entry): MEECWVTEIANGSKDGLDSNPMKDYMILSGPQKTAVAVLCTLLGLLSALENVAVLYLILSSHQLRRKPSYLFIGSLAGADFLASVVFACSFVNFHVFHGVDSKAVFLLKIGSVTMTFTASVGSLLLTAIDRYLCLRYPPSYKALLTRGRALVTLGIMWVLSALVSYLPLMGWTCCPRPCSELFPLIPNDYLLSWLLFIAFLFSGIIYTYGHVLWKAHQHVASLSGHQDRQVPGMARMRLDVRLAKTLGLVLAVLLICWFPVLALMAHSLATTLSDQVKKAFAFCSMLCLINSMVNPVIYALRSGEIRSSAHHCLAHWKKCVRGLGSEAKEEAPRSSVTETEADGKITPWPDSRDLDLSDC
Chain of 5-hydroxytryptamine receptor 2A (P28223 whole entry): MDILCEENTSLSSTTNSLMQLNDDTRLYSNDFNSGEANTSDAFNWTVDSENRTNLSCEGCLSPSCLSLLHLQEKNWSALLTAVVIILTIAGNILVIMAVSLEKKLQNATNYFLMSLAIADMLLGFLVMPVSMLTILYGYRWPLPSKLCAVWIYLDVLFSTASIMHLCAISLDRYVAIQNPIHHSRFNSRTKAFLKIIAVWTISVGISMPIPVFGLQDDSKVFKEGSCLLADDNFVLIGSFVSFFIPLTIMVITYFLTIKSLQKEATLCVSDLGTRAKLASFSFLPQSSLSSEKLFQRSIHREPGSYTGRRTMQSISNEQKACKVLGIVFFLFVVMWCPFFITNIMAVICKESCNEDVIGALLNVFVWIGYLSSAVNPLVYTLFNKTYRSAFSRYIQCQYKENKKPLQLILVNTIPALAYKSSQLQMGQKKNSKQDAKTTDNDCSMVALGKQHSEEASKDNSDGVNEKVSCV
Chain of Phosphatidylinositol 4,5-bisphosphate 3-kinase catalytic subunit gamma isoform (P48736 whole entry, canonical isoform): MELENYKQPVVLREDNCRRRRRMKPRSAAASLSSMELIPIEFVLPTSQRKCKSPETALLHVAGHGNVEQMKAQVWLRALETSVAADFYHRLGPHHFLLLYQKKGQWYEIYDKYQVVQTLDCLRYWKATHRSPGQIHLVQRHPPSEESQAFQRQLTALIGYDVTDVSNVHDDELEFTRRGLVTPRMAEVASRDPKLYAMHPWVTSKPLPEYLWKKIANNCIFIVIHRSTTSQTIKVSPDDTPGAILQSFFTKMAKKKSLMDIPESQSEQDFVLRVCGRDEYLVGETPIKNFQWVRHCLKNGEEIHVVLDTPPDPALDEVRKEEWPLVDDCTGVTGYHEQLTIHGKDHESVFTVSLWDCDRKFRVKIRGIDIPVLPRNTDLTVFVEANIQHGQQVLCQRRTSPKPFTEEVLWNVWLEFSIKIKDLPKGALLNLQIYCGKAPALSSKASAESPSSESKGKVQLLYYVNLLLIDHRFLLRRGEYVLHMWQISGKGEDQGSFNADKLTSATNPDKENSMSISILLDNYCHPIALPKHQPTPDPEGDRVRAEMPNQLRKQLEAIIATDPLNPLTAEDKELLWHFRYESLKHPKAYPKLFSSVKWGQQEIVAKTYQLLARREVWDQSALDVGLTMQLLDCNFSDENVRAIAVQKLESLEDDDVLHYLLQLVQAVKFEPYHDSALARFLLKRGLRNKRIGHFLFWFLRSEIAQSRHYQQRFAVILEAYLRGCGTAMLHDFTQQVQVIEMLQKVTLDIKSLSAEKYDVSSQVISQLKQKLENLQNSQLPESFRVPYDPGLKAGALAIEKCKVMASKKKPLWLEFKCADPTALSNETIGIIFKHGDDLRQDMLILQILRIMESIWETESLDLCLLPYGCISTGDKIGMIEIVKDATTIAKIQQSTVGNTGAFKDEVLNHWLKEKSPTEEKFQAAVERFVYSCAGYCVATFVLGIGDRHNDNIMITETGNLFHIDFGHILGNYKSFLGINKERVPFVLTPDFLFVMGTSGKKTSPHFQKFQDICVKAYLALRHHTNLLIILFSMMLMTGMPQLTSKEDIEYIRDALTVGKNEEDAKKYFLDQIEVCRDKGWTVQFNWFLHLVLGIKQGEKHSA
Chain of Sodium channel protein type 5 subunit alpha (Q14524 whole entry, canonical isoform): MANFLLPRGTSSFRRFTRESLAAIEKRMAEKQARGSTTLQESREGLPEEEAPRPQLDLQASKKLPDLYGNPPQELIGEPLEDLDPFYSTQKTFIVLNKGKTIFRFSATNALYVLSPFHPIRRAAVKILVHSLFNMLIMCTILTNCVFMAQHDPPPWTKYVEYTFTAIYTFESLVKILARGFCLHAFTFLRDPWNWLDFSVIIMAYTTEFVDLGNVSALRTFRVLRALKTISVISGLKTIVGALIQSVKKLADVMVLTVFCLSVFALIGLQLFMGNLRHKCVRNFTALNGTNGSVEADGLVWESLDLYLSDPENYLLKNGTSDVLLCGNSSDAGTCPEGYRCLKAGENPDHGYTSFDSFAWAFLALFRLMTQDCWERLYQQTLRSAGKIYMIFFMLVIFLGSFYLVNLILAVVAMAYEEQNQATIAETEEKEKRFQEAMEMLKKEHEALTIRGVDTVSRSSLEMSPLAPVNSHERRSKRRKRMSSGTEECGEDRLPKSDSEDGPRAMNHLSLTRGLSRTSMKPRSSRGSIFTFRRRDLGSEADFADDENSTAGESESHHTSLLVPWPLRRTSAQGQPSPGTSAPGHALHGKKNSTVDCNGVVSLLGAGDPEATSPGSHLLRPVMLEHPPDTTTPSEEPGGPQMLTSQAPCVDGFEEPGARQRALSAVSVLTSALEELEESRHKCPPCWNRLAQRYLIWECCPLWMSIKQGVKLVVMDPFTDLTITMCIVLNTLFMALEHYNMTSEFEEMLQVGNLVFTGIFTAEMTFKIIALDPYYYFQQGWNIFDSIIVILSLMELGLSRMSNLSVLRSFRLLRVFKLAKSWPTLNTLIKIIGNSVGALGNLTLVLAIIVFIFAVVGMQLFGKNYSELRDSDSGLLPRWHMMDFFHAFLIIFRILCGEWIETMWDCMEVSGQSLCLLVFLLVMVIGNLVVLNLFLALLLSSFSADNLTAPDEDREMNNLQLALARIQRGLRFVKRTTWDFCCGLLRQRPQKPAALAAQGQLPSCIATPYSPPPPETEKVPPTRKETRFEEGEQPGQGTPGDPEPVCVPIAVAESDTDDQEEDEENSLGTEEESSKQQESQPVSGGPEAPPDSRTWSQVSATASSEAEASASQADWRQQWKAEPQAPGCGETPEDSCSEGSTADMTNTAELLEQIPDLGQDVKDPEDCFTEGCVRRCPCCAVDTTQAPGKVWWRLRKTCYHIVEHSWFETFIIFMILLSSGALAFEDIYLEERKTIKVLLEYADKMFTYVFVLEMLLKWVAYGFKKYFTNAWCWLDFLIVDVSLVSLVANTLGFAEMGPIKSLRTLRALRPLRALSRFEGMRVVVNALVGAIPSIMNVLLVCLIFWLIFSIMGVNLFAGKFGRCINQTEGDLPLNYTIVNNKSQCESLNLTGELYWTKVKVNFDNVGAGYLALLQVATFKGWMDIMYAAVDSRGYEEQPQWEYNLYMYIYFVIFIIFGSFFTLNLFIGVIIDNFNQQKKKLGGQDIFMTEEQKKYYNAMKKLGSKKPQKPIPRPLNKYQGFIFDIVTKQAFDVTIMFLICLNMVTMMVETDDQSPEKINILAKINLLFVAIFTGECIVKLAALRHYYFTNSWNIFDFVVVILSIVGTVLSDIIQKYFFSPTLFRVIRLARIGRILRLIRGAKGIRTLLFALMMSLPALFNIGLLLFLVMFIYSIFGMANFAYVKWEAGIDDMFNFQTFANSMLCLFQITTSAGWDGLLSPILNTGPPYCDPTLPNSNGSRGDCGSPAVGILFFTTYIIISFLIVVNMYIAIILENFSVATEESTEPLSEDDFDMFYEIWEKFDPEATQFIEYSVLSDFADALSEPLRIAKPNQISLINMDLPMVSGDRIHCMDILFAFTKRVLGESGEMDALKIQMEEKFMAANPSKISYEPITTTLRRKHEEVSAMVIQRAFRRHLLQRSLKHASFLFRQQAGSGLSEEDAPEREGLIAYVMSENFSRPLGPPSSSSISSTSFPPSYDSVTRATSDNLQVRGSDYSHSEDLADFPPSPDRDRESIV
Chain of Kappa-type opioid receptor (P41145 whole entry): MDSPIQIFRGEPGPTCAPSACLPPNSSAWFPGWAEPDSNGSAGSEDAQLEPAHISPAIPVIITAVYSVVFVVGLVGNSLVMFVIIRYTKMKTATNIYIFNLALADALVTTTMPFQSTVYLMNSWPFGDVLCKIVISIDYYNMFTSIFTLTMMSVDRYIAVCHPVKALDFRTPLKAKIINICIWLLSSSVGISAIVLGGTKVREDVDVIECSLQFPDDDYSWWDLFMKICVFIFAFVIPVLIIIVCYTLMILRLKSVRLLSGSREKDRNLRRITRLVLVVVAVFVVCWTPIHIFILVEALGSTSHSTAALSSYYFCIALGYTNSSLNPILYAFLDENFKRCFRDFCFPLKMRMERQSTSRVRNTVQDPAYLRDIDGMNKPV

A word on the pEC50: it is −log10 of the EC50, conventionally taken in molar units. As usually defined, the pIC50 is the IC50 on a negative log10 scale, so that one unit is a factor of ten. Low values mean a high IC50, high ones a low IC50. For orientation: Cmax means the highest concentration seen after dosing. For `c1ccc([C@@H]2C[C@H]2NC2CCNCC2)cc1`, the pEC50 on Cannabinoid receptor 2 is less than 4.00; at D(1A) dopamine receptor it was less than 4.00; in data set [1] it was less than 4.52; in data set [2], less than 4.00; in [3] it was less than 4.60. In addition, the pIC50 in [4] is less than 4.00; in data set [5] it was less than 4.60; in data set [6], less than 4.00; in data set [7], less than 4.00; in data set [8], less than 4.49. In [9], this molecule had a peak concentration (Cmax) of 466 ng/mL.

In general, AUC(0-t) refers to the area under the concentration-time curve up to a stated or last time point. Take `O=C(O)c1ccc(CN2CCC(CN[C@@H]3C[C@H]3c3ccccc3)CC2)cc1` [GSK2879552]: the pEC50 is less than 4.00 on Cannabinoid receptor 2; less than 4.49 at D(1A) dopamine receptor; less than 4.80 in [1]; less than 4.00 in [2]; less than 4.40 in data set [3]. In addition, the negative-log IC50 (pIC50) in data set [5] is less than 4.60; in [7], 4.10; in [8] it was less than 4.49. In addition, the Cmax in data set [10] turned out to be 720 ng/mL. This molecule also registered an AUC(0-t) in [11] of 2320 ng·h/mL. Also, the Activity entry was “Non-Toxic” in [12]; 0.42 in [13]; 1.15 in data set [16]; 0.04 in [21]; 0.05 in data set [22]; 2.21 in data set [24]. In data set [27], the Activity entry is “Toxic”. Moreover, the “fold change (FC)” value came to 1.53 in data set [14]; 2.14 in [15]; 1.43 in data set [17]; 0.73 in data set [18]; 0.95 in data set [19]; 0.29 in [20]. The figures for the “fold change (FC)” value in data set [23], in data set [25] and in [26] were 2.77, 0.89 and 0.45, respectively. Besides, the result in the data set on COLO-668 and with SHP77 was inactive. Besides, the inhibition result in the data set with NCI-H526 was “Dose-Dependent Effect”; in data set [29] it was “Tde”. The inhibition in vivo at 1.5 mg/kg in data set [28] was 74%.
